In patent US20140088306A1, “RADIOACTIVE FLUORINE-LABELED QUINOXALINE COMPOUND” (Nihon Medi-Physics Co., Ltd., priority 2012, published 2014):

How the values were obtained:
[1] = test system: amyloid plaques in the brain; assay: Ex vivo autoradiography using Alzheimer's disease model mouse (Example 9); assay type: in vivo; conditions: Tg2576 mouse (24-month old) vs normal mouse; tail vein; 1 hour after administration
Protocol: To confirm whether the compound 2 has the performance capable of visualizing amyloid plaques in the brain, an image was taken by ex vivo autoradiography in a Tg2576 mouse as one of Alzheimer's disease model animals.
[^18F]D3 (55.5 MBq (1.5 mCi)/200 μL) was administered to a Tg2576 mouse (24-month old, female) and a normal mouse (24-month old, female) through their tail vein. Each mouse was sacrificed 1 hour after administration, and the brain was removed, embedded in a carboxymethylcellulose solution, and frozen in a dry ice-hexane bath, followed by preparing frozen sections having a thickness of 30 μm using a cryostat (Leica). The resultant brain tissue sections were each placed on an imaging plate (Model BAS-SR, from Fujifilm Corporation) for 30 minutes for exposure, and the respective autoradiographs were obtained using an image analyzer (Bio Imaging Analyzer Model BAS5000, from Fujifilm Corporation). The same sections were each stained with thioflavin S ([…]), washed, and observed under a fluorescent microscope.

[2] = In vivo radioactivity distribution experiment (Example 8); conditions: ddY mice, tail vein, SD in parenthesis
Protocol: Through the tail vein of ddY mice (male, 5 week-old) was injected each of a 10 volume % ethanol-containing saline solution of [^18F]E3 (45.4 kBq, 100 μL), a 10 volume % ethanol-containing saline solution of [^18F]D3 (38.2 kBq, 100 μL), a 10 volume % ethanol-containing saline solution of [^18F]E1 (45.1 kBq, 100 μL), and a 10 volume % ethanol-containing saline solution of [^18F]E2 (40.6 kBq, 100 μL). Five mice were used for each group and sacrificed 2, 10, 30, and 60 minutes after administration to remove major organs. The blood and organs were weighed and further measured for radioactivity using a γ counter. The amount of radioactivity per unit mass was measured in each organ to evaluate radioactivity distribution.

amyloid plaques = assay: Autoradiography using postmortem brain section of patient with Alzheimer's disease (Example 7); assay type: binding, human (Alzheimer's disease patient); conditions: brain section (temporal lobe) of Alzheimer's disease patient; 0.37 MBq/100 μL, 1 hour
amyloid plaques, sequence (P05067 672-711 limits assumed): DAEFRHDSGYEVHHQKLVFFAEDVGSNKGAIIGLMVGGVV
Protocol: A postmortem autopsy brain section (temporal lobe) of a patient with Alzheimer's disease was incubated together with each of [^18F]E3, [^18F]D3, [^18F]E1, and [^18F]E2 (0.37 MBq/100 μL each) at room temperature for 1 hour. The resultant was washed with a 50 volume % ethanol aqueous solution (2 minutes×2) and water (2 minutes×2), and after drying, the section was contacted with BAS imaging plate (from Fujifilm Corporation) for 1.5 hours. The image of autoradiography was obtained using BAS5000 scanner system (from Fujifilm Corporation).
A section adjacent to the brain section used was immunostained in the following manner.
First, a paraffin-embedded brain section of the Alzheimer's disease patient (temporal lobe, 6 μm in thickness) was incubated with xylene (15 minutes×2), ethanol (1 minute×2), a 90 volume % ethanol aqueous solution (1 minute×2), and a 70 volume % ethanol aqueous solution (1 minute×1) in that order for complete deparaffinization, and then washed in water (2.5 minutes×2). Thereafter, the section was subjected to autoclave treatment for 15 minutes in 0.01 mol/L citrate buffer solution (pH 6.0). The resultant was incubated in PBS-Tween20 (5 minutes×2), and a mouse anti-Aβ1-42 primary monoclonal antibody (from Wako Pure Chemical Industries Ltd.) was then added thereto, which was then incubated at room temperature overnight. The resultant was incubated in PBS-Tween20 (2 minutes×3), and a biotin-goat anti-mouse IgG (from Funakoshi Co., Ltd.) was then added thereto, which was then incubated at room temperature for 1 hour. The resultant was incubated in PBS-Tween20 (5 minutes×3), and a streptavidin-peroxidase complex (from Funakoshi Co., Ltd.) was added thereto, which was then incubated at room temperature for 30 minutes. In addition, the resultant was incubated in PBS-Tween20 (2 minutes×3); 3,3′-diaminobenzidine was added thereto, which was then incubated at room temperature for 30 minutes; and after washing with water, the section was observed under a microscope to provide an immunostained image (FIG. 10).

amyloid plaques in the brain, sequence (P05067 672-711 limits assumed): as above

4-(6-(2-[^18F]Fluoroethoxy)quinoxalin-2-yl)-N,N-dimethylaniline [[^18F]D3]
visualization of amyloid plaques in the brain, ex vivo autoradiography [1]: could visualize amyloid plaques in the brain | Radioactivity Amount, Blood ([2]; 2 min. after): 2.66 (0.50) % injected dose/g | Radioactivity Amount, Blood ([2]; 10 min. after): 2.29 (0.25) % injected dose/g | Radioactivity Amount, Blood ([2]; 30 min. after): 2.98 (0.29) % injected dose/g | Radioactivity Amount, Blood ([2]; 60 min. after): 3.26 (0.37) % injected dose/g | Radioactivity Amount, Bone ([2]; 2 min. after): 2.65 (0.61) % injected dose/g | Radioactivity Amount, Bone ([2]; 10 min. after): 2.75 (0.36) % injected dose/g | Radioactivity Amount, Bone ([2]; 30 min. after): 2.82 (0.78) % injected dose/g | Radioactivity Amount, Bone ([2]; 60 min. after): 2.77 (1.27) % injected dose/g | Radioactivity Amount, Brain ([2]; 2 min. after): 5.67 (0.48) % injected dose/g | Radioactivity Amount, Brain ([2]; 10 min. after): 6.39 (0.51) % injected dose/g | Radioactivity Amount, Brain ([2]; 30 min. after): 3.73 (0.50) % injected dose/g | Radioactivity Amount, Brain ([2]; 60 min. after): 2.61 (0.37) % injected dose/g | Radioactivity Amount, Heart ([2]; 2 min. after): 8.50 (1.40) % injected dose/g | Radioactivity Amount, Heart ([2]; 10 min. after): 4.19 (0.47) % injected dose/g | Radioactivity Amount, Heart ([2]; 30 min. after): 3.29 (0.68) % injected dose/g | Radioactivity Amount, Heart ([2]; 60 min. after): 3.74 (0.72) % injected dose/g | Radioactivity Amount, Intestine ([2]; 2 min. after): 2.56 (0.10) % injected dose/g | Radioactivity Amount, Intestine ([2]; 10 min. after): 5.27 (0.27) % injected dose/g | Radioactivity Amount, Intestine ([2]; 30 min. after): 9.82 (1.43) % injected dose/g | Radioactivity Amount, Intestine ([2]; 60 min. after): 12.3 (0.79) % injected dose/g | Radioactivity Amount, Kidney ([2]; 2 min. after): 10.7 (0.96) % injected dose/g | Radioactivity Amount, Kidney ([2]; 10 min. after): 6.66 (0.45) % injected dose/g | Radioactivity Amount, Kidney ([2]; 30 min. after): 4.19 (0.78) % injected dose/g | Radioactivity Amount, Kidney ([2]; 60 min. after): 3.30 (0.39) % injected dose/g | Radioactivity Amount, Liver ([2]; 2 min. after): 10.3 (1.00) % injected dose/g | Radioactivity Amount, Liver ([2]; 10 min. after): 9.83 (0.22) % injected dose/g | Radioactivity Amount, Liver ([2]; 30 min. after): 6.91 (0.81) % injected dose/g | Radioactivity Amount, Liver ([2]; 60 min. after): 6.65 (0.90) % injected dose/g | Radioactivity Amount, Lung ([2]; 2 min. after): 8.94 (1.76) % injected dose/g | Radioactivity Amount, Lung ([2]; 10 min. after): 4.59 (1.07) % injected dose/g | Radioactivity Amount, Lung ([2]; 30 min. after): 3.51 (0.44) % injected dose/g | Radioactivity Amount, Lung ([2]; 60 min. after): 3.39 (0.14) % injected dose/g | Radioactivity Amount, Pancreas ([2]; 2 min. after): 6.55 (0.63) % injected dose/g | Radioactivity Amount, Pancreas ([2]; 10 min. after): 4.74 (0.42) % injected dose/g | Radioactivity Amount, Pancreas ([2]; 30 min. after): 2.73 (0.50) % injected dose/g | Radioactivity Amount, Pancreas ([2]; 60 min. after): 2.74 (0.19) % injected dose/g | Radioactivity Amount, Spleen ([2]; 2 min. after): 2.86 (0.66) % injected dose/g | Radioactivity Amount, Spleen ([2]; 10 min. after): 4.09 (0.33) % injected dose/g | Radioactivity Amount, Spleen ([2]; 30 min. after): 2.66 (0.57) % injected dose/g | Radioactivity Amount, Spleen ([2]; 60 min. after): 3.07 (0.68) % injected dose/g | Radioactivity Amount, Stomach* ([2]; 2 min. after): 1.09 (0.05) % injected dose per organ | Radioactivity Amount, Stomach* ([2]; 10 min. after): 1.64 (0.28) % injected dose per organ | Radioactivity Amount, Stomach* ([2]; 30 min. after): 1.98 (0.47) % injected dose per organ | Radioactivity Amount, Stomach* ([2]; 60 min. after): 2.06 (0.46) % injected dose per organ | visualization of gray matter / amyloid plaques by autoradiography (amyloid plaques): amyloid plaques were visualized
